In article PMC2714474, “Extreme variability in the formation of chlorpyrifos oxon (CPO) in patients poisoned by chlorpyrifos (CPF)” (Biochemical Pharmacology, 2009):

Assays:
[1] = target: T1, RBC acetylcholinesterase (AChE; EC 3.1.1.7) (Homo sapiens, UniProt P22303); test: RBC-AChE activity in CPF-poisoned patients (modified Ellman assay); assay type: in vivo
T1 construct: from tissue; host or cells: red blood cells (diluted whole blood) of chlorpyrifos-poisoned patients
Method: (§1) Laboratory analyses were conducted in Munich, Germany. AChE activity was determined in native RBCs (AChE in vivo) and after reactivation with supra-therapeutic obidoxime (AChE in vitro) to estimate the reactivatable fraction. These assays were performed using a modified Ellman assay as described. BChE activity and inhibitory activity of plasma were assessed as reported. In short, inhibitory activity of patient plasma was tested by incubating 3 volumes of hemolysate (3 g Hb/100 mL 0.1 M phosphate buffer, pH 7.4; washed red blood cells from a healthy donor) with 1 volume of patient plasma at 37 °C for 60 min.

[2] = tested on: human diethylphosphoryl-AChE; details: human red blood cells in vitro, cited from earlier work
[3] = Plasma CPF concentration in CPF-poisoned patients (HPLC)
Method: (§2) Serial blood samples stem from patients with acute chlorpyrifos poisoning who were enrolled in two randomised controlled studies (RCT1: ISRCTN02920054 and RCT2: ISRCTN55264358). The studies were performed in Sri Lankan hospitals in Anuradhapura and Polonnaruwa aimed at evaluating the efficacy of oral superactivated charcoal (RCT 1) or pralidoxime (RCT 2) in symptomatic organophosphorus pesticide poisoning. Additional patients were recruited in a prospective cohort study in Nuwara Eliya that was assessing changes in neuromuscular junctional function in organophosphorus pesticide poisoning. […] Treatment consisted of fluid resuscitation and atropine as described [15] and pralidoxime chloride 1 g every 6 for 48 h (RCT1 and Nuwara Eliya cohort), although there was no strict adherence to this regimen. Patients in RCT2 were randomised to receive pralidoxime (2 g pralidoxime chloride loading dose over 20 min, then 0.5 g/h until a maximum of 7 days) or an equal volume of normal saline in addition to the supportive therapy mentioned above. The blood samples were collected between 25 May 2004 and 18 October 2006.
(§3) Blood samples were collected into tubes containing EDTA prior to pralidoxime, then at 1, 4, 12, and 24 h after administration, then once daily until discharge or death. A 0.2 mL blood sample was diluted at the bedside immediately after collection with 4 mL of ice-cold saline and frozen to −23 °C until analysis of AChE activity. The remaining sample was promptly centrifuged and the aspirated plasma frozen at −23 °C until analysis of BChE activity, inhibitory activity, and the concentration of CPF and CPO [15].
CPF was determined by reversed phase HPLC with detection at 288 nm. Specifically, 0.5 mL plasma was mixed with 10 μL of 500 μM fenitrothion as internal standard to control the extraction yield. The plasma was extracted twice with 1 mL n-hexane for 1 min and residual lipoproteins in the combined hexane phases were precipitated with 50 μL 1 M perchloric acid, followed by centrifugation (10.000 rpm for 1 min). The hexane phase was transferred in a borosilica vial and 10 μL of DMSO was added as keeper. Hexane was evaporated at approximately 40 °C for 30 min in a Speed-Vac-Concentrator. The residue was dissolved in 90 μL of methanol:water (70/30, v/v) and 50 μL were applied to LiChrosphere 100 RP-18, 5 μm, 125 mm × 4 mm (E. Merck, Darmstadt, Germany) and eluted at a flow rate of 1 mL/min by gradient elution. […] Typically, fenitrothion was eluted after 3.3 min and chlorpyrifos after 11.5 min. The lower limit of quantification (LOQ) was 0.1 μM in plasma.

CYP2B6 = details: read-out: Km of CPF desulfuration; human hepatic CYP2B6; cited from earlier work
CYP3A4 = details: read-out: Km of CPF desulfuration; human hepatic CYP3A4; cited from earlier work
[4] = target: butyrylcholinesterase (BChE; EC 3.1.1.8) (Homo sapiens, UniProt P06276); test: BChE activity in plasma of CPF-poisoned patients; assay type: in vivo; details: one patient, 70 min after CPF ingestion
Method: as §1

[5] = Ratio CPO/CPF in plasma of CPF-poisoned patients; assay type: in vivo, human
Text: Data were excluded when CPF and/or CPO were below the LOQs or when the time of ingestion or blood sampling was ambiguous. […] In these cases significant post-sampling reactions had to be suspected.

[6] = tested on: human red blood cell AChE; set-up: method as in PMID 15181665; details: cited from earlier work
BChE = details: cited from earlier work
[7] = tested on: human red blood cell AChE; test: Inhibition kinetics of human red blood cell AChE by CPO; assay type: biochemical; details: 11.3 nM AChE, 20 nM CPO
Text: The basis for the calculation of free CPO is the equation given below: [E]/[EP+EPOx]=kr/ki×[P]×(1+KD/[Ox]) E = active enzyme; EP = phosphorylated, but unaged enzyme; EPOx = complex of oxime and phosphorylated, but unaged enzyme; [EP + EPOx] is the reactivatable enzyme = AChE in vitro–AChE in vivo; kr is the first-order reactivation rate constant; KD is the dissociation constant of the complex EPOx; ki is the second-order inhibition rate constant; [P] is the oxon concentration; [Ox] is the oxime concentration.
The fraction of active test AChE upon incubation with known amounts of CPO in plasma samples was calculated discretely in 1-min increments using the following equation: E=E0−ki×(E−EP)×0.15×(CPO0−EP), with E0 and CPO0 being the AChE and total CPO concentration at t = 0 (the factor 0.15 corrects for the fraction not bound reversibly to albumin).

bovine serum albumin [8] = test: Hydrolysis / inactivation of CPO by serum albumin; assay type: biochemical; details: 20 nM CPO, 1% albumin in inhibition assay, assuming human serum albumin has similar constants as BSA
RBC-AChE = target: T2, RBC-AChE (Homo sapiens, UniProt P22303); test: Inhibitory activity of patient plasma towards RBC-AChE of a healthy donor; assay type: biochemical; details: EDTA-based plasma, absence of pralidoxime
T2 construct: washed red blood cells from a healthy donor; from tissue; host or cells: haemolysate of washed red blood cells from a healthy donor
Method: as §1

bovine serum albumin [9] = details: pH 7.4 and 37 °C, cited from earlier work
[10] = Plasma CPO concentration in CPF-poisoned patients (enzyme-based assay with horse BChE); details: median (IQR)
Method: as §2, §3
CPO was determined by an enzyme-based assay as described recently [9]. In short, CPO was extracted with n-pentane and the reconstituted residue titrated with purified horse BChE, allowing an LOQ of 0.5 nM. The data were corrected for 83% recovery of CPO from plasma [9].

T1 sequence (P22303 32-617 isoform P22303-2 limits assumed): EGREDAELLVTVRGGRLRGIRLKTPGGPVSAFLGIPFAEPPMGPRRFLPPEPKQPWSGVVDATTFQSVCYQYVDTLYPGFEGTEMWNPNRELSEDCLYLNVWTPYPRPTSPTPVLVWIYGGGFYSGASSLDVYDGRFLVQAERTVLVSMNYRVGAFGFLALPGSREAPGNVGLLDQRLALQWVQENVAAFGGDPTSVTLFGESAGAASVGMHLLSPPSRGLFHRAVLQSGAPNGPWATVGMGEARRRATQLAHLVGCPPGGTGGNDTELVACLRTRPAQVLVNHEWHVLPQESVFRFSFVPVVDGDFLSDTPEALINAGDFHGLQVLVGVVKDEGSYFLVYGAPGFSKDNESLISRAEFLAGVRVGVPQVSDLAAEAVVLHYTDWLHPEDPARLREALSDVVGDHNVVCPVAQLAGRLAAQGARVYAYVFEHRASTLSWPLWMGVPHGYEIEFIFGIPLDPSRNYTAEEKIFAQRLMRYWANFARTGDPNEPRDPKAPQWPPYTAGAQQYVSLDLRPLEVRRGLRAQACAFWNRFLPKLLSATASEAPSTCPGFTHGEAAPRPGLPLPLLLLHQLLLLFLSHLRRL
butyrylcholinesterase (BChE; EC 3.1.1.8), sequence (P06276 29-602): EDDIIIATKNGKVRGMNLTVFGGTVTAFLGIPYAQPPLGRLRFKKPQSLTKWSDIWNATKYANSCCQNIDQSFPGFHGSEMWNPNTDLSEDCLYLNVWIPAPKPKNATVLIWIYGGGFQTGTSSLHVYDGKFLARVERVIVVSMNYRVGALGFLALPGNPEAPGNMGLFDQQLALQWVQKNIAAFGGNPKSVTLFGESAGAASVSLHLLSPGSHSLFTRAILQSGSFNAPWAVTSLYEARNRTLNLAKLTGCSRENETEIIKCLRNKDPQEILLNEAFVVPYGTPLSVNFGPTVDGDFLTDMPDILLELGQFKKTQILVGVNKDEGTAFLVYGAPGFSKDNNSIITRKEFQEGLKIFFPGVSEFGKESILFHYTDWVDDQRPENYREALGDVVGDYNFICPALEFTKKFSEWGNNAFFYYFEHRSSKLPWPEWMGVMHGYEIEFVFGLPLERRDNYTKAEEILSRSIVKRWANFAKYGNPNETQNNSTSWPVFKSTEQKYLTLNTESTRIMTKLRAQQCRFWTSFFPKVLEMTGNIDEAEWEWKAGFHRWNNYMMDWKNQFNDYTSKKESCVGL
T2 sequence (P22303 32-617 isoform P22303-2 limits assumed): as the sequence (P22303 32-617 isoform P22303-2 limits assumed) above

C[n+]1ccccc1/C=N/O [pralidoxime]
AChE reactivation (fraction of active enzyme from reactivatable pool) ([1]; patient A, continuous pralidoxime infusion given for 5 days): ~90% | kr, first-order reactivation rate constant [2]: 0.3 min⁻¹ | Kd ([2]; read-out: KD, dissociation constant of the complex EPOx): 330 µM

CCOP(=S)(OCC)Oc1nc(Cl)c(Cl)cc1Cl [CPF, Chlorpyrifos]
CPF plasma concentration ([3]; 0–4 h post poisoning, median (interquartile range), n=52): 2.54 (1.6–4.7) μM | CPF plasma concentration ([3]; 4–8 h post poisoning, median (IQR), n=67): 1.65 (0.7–3.2) μM | CPF plasma concentration ([3]; 8–16 h post poisoning, median (IQR), n=59): 0.70 (0.4–1.2) μM | CPF plasma concentration ([3]; 16–24 h post poisoning, median (IQR), n=30): 0.44 (0.3–1.5) μM | CPF plasma concentration ([3]; 24–36 h post poisoning, median (IQR), n=45): 0.47 (0.3–1.1) μM | CPF plasma concentration ([3]; 36–60 h post poisoning, median (IQR), n=41): 0.66 (0.2–1.0) μM | CPF plasma concentration ([3]; 60–84 h post poisoning, median (IQR), n=27): 0.46 (0.2–0.8) μM | CPF plasma concentration ([3]; 84–120 h post poisoning, median (IQR), n=28): 0.39 (0.2–0.7) μM | Km (CYP2B6): ~1 µM | Km (CYP3A4): ~30 µM | AChE activity, of normal ([1]; one patient, 70 min after CPF ingestion): < 10% | BChE activity, of normal [4]: less than 2%

Chlorpyrifos oxon [CPO]
CPO/CPF × 1000 ([5]; 0–4 h post poisoning, median (IQR) of individual sample ratios): 4.2 (1.9–9.5) | CPO/CPF × 1000 ([5]; 4–8 h post poisoning, median (IQR)): 6.8 (4.3–14.0) | CPO/CPF × 1000 ([5]; 8–16 h post poisoning, median (IQR)): 17.5 (9.2–31.6) | CPO/CPF × 1000 ([5]; 16–24 h post poisoning, median (IQR)): 14.2 (10.5–42.6) | CPO/CPF × 1000 ([5]; 24–36 h post poisoning, median (IQR)): 28.6 (11.3–44.4) | ratio CPO/CPF, other individuals ([5]; 24–120 h, steady-state, high individuals): > 0.05 | ratio CPO/CPF, some individuals ([5]; 24–120 h, steady-state, low individuals): below 0.01 | CPO/CPF × 1000 ([5]; 36–60 h post poisoning, median (IQR)): 29.2 (14.4–70.7) | CPO/CPF × 1000 ([5]; 60–84 h post poisoning, median (IQR)): 37.3 (12.7–65.3) | CPO/CPF × 1000 ([5]; 84–120 h post poisoning, median (IQR)): 25.0 (15.4–53.6) | ratio of CPO/CPF (apparent steady-state mean) ([5]; between 30 and 72 h): 0.03 | ratio of CPO/CPF (mean) ([5]; first few hours after ingestion): 0.005 | ratio of CPO/CPF ([5]; period between 0 and 4 h after ingestion): less than 0.005 | ratio of CPO/CPF on average ([5]; period between 24 and 120 h): ~0.03 | ki, second-order inhibition rate constant [6]: 100000 M⁻¹ s⁻¹ | reaction faster with BChE than with AChE (BChE): more than 2 orders of magnitude | (initial) AChE inhibition rate [7]: 1.35 nM/min | rate of CPO inactivation by albumin (bovine serum albumin [8]): 0.45 nM/min | fraction of CPO capable of inhibiting AChE (RBC-AChE): roughly 2/3 | Vmax of CPO 'hydrolysis' by bovine serum albumin (bovine serum albumin [9]): 0.9 nmol/min/mg protein | Km (bovine serum albumin [9]; read-out: Km of CPO 'hydrolysis' by bovine serum albumin): 400 µM | CPO plasma concentration ([10]; 0–4 h post CPF poisoning, n=52): 10.1 (4.5–22.2) nM | CPO plasma concentration ([10]; 4–8 h post CPF poisoning, n=67): 11.9 (6.5–21.5) nM | CPO plasma concentration ([10]; 8–16 h post CPF poisoning, n=59): 12.7 (5.5–22.5) nM | CPO plasma concentration ([10]; 16–24 h post CPF poisoning, n=30): 9.6 (4.1–30.1) nM | CPO plasma concentration ([10]; 24–36 h post CPF poisoning, n=45): 14.1 (4.7–34.5) nM | CPO plasma concentration ([10]; 36–60 h post CPF poisoning, n=41): 16.7 (3.4–68.4) nM | CPO plasma concentration ([10]; 60–84 h post CPF poisoning, n=27): 22.7 (2.2–59.9) nM | CPO plasma concentration ([10]; 84–120 h post CPF poisoning, n=28): 7.1 (4.2–40.2) nM

CCOP(=O)(OCC)Oc1cc(C)nc(C(C)C)n1 [diazoxon, reference compound]
reactivity in inhibiting BChE, times less than CPO (BChE): 20 times
